#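 Method: 48-hour compound exposure of cells in 96-well plates, five concentrations, linear interpolation of endpoints. TGI: concentration producing complete growth inhibition.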
# Tests used:
# Assay in all cases: NCI tumour cell line growth inhibition, 48 h
# HCC-2998 colon = test system: HCC-2998 colon
# SF-539 CNS = test system: SF-539 CNS
# COLO 205 colon = test system: COLO 205 colon
# NCI-H460 lung = test system: NCI-H460 lung
# OVCAR-4 ovarian = test system: OVCAR-4 ovarian
# MALME-3M melanoma = test system: MALME-3M melanoma
# NCI-H23 lung = test system: NCI-H23 lung
# SNB-75 CNS = test system: SNB-75 CNS
# CCRF-CEM leukemia = test system: CCRF-CEM leukemia
# SR leukemia = test system: SR leukemia
# XF 498 CNS = test system: XF 498 CNS
# DMS 273 small cell lung = test system: DMS 273 small cell lung
# M19-MEL melanoma = test system: M19-MEL melanoma
# LXFL 529 NSCLC = test system: LXFL 529 NSCLC
# SK-OV-3 ovarian = test system: SK-OV-3 ovarian
# K-562 leukemia = test system: K-562 leukemia
# LOX IMVI melanoma = test system: LOX IMVI melanoma
# DLD-1 colon = test system: DLD-1 colon
# CAKI-1 renal = test system: CAKI-1 renal
# UACC-62 melanoma = test system: UACC-62 melanoma
# A498 renal = test system: A498 renal
# SNB-78 CNS = test system: SNB-78 CNS
# SK-MEL-2 melanoma = test system: SK-MEL-2 melanoma
# MOLT-4 leukemia = test system: MOLT-4 leukemia
# HL-60(TB) leukemia = test system: HL-60(TB) leukemia
# UO-31 renal = test system: UO-31 renal
# DMS 114 small cell lung = test system: DMS 114 small cell lung
# SF-268 CNS = test system: SF-268 CNS
# IGROV1 ovarian = test system: IGROV1 ovarian
# M14 melanoma = test system: M14 melanoma
# HOP-92 NSCLC = test system: HOP-92 NSCLC
# SN12C renal = test system: SN12C renal
# SK-MEL-28 melanoma = test system: SK-MEL-28 melanoma
# HCT-116 colon = test system: HCT-116 colon
# 786-0 renal = test system: 786-0 renal
# HOP-62 NSCLC = test system: HOP-62 NSCLC
# NCI-H226 lung = test system: NCI-H226 lung
# RXF-631 renal = test system: RXF-631 renal
# NCI-H522 lung = test system: NCI-H522 lung
# RPMI-8226 leukemia = test system: RPMI-8226 leukemia
# HCT-15 colon = test system: HCT-15 colon
# U251 CNS = test system: U251 CNS
# HT29 colon = test system: HT29 colon
# RXF 393 renal = test system: RXF 393 renal
# SNB-19 CNS = test system: SNB-19 CNS
# ACHN renal = test system: ACHN renal
# SK-MEL-5 melanoma = test system: SK-MEL-5 melanoma
# TK-10 renal = test system: TK-10 renal
# OVCAR-8 ovarian = test system: OVCAR-8 ovarian
# A549 NSCLC = test system: A549 NSCLC
# SF-295 CNS = test system: SF-295 CNS
# OVCAR-3 ovarian = test system: OVCAR-3 ovarian
# HOP-18 NSCLC = test system: HOP-18 NSCLC
# OVCAR-5 ovarian = test system: OVCAR-5 ovarian
# EKVX NSCLC = test system: EKVX NSCLC
# SW-620 colon = test system: SW-620 colon
# KM12 colon = test system: KM12 colon
# KM20L2 colon = test system: KM20L2 colon
# UACC-257 melanoma = test system: UACC-257 melanoma
smiles,measurement,setting,value
CN1CCCN2CCN(C)CCCN(CC1)CC2,TGI,HCC-2998 colon,> 100 µM
same,TGI,SF-539 CNS,> 100 µM
same,TGI,COLO 205 colon,> 100 µM
same,TGI,NCI-H460 lung,> 100 µM
same,TGI,OVCAR-4 ovarian,> 100 µM
same,TGI,MALME-3M melanoma,> 100 µM
same,TGI,NCI-H23 lung,> 100 µM
same,TGI,SNB-75 CNS,> 100 µM
same,TGI,CCRF-CEM leukemia,> 100 µM
same,TGI,SR leukemia,> 100 µM
same,TGI,XF 498 CNS,> 100 µM
same,TGI,DMS 273 small cell lung,> 100 µM
same,TGI,M19-MEL melanoma,> 100 µM
same,TGI,LXFL 529 NSCLC,> 100 µM
same,TGI,SK-OV-3 ovarian,> 100 µM
same,TGI,K-562 leukemia,> 100 µM
same,TGI,LOX IMVI melanoma,> 100 µM
same,TGI,DLD-1 colon,> 100 µM
same,TGI,CAKI-1 renal,> 100 µM
same,TGI,UACC-62 melanoma,> 100 µM
same,TGI,A498 renal,> 100 µM
same,TGI,SNB-78 CNS,> 100 µM
same,TGI,SK-MEL-2 melanoma,> 100 µM
same,TGI,MOLT-4 leukemia,> 100 µM
same,TGI,HL-60(TB) leukemia,> 100 µM
same,TGI,UO-31 renal,> 100 µM
same,TGI,DMS 114 small cell lung,> 100 µM
same,TGI,SF-268 CNS,> 100 µM
same,TGI,IGROV1 ovarian,> 100 µM
same,TGI,M14 melanoma,> 100 µM
same,TGI,HOP-92 NSCLC,> 100 µM
same,TGI,SN12C renal,> 100 µM
same,TGI,SK-MEL-28 melanoma,> 100 µM
same,TGI,HCT-116 colon,> 100 µM
same,TGI,786-0 renal,> 100 µM
same,TGI,HOP-62 NSCLC,> 100 µM
same,TGI,NCI-H226 lung,> 100 µM
same,TGI,RXF-631 renal,> 100 µM
same,TGI,NCI-H522 lung,> 100 µM
same,TGI,RPMI-8226 leukemia,> 100 µM
CC1=C(C(=O)Nc2ccccc2)C(c2cc(Cl)cc(Cl)c2)C(C(=O)Nc2ccccc2)=C(C)N1,TGI,HCT-15 colon,18.6 µM
same,TGI,HCC-2998 colon,25.7 µM
same,TGI,SF-539 CNS,32.8 µM
same,TGI,COLO 205 colon,31 µM
same,TGI,U251 CNS,12.9 µM
same,TGI,HT29 colon,21.4 µM
same,TGI,NCI-H460 lung,62.8 µM
same,TGI,OVCAR-4 ovarian,19.2 µM
same,TGI,MALME-3M melanoma,27.9 µM
same,TGI,RXF 393 renal,26.3 µM
same,TGI,NCI-H23 lung,19.1 µM
same,TGI,SNB-19 CNS,27.5 µM
same,TGI,SNB-75 CNS,34 µM
same,TGI,CCRF-CEM leukemia,14.9 µM
same,TGI,SR leukemia,12.6 µM
same,TGI,XF 498 CNS,27.5 µM
same,TGI,DMS 273 small cell lung,35 µM
same,TGI,M19-MEL melanoma,26.4 µM
same,TGI,LXFL 529 NSCLC,17.9 µM
same,TGI,ACHN renal,47.2 µM
same,TGI,SK-MEL-5 melanoma,27.7 µM
same,TGI,SK-OV-3 ovarian,98.7 µM
same,TGI,TK-10 renal,33.6 µM
same,TGI,K-562 leukemia,13.6 µM
same,TGI,LOX IMVI melanoma,24.6 µM
same,TGI,OVCAR-8 ovarian,43.5 µM
same,TGI,DLD-1 colon,20.2 µM
same,TGI,CAKI-1 renal,31.6 µM
same,TGI,UACC-62 melanoma,22.2 µM
same,TGI,A549 NSCLC,58.8 µM
same,TGI,SF-295 CNS,28.8 µM
same,TGI,OVCAR-3 ovarian,22.1 µM
same,TGI,A498 renal,43.1 µM
same,TGI,SNB-78 CNS,> 100 µM
same,TGI,SK-MEL-2 melanoma,25.8 µM
same,TGI,MOLT-4 leukemia,18.1 µM
same,TGI,HL-60(TB) leukemia,6.52 µM
same,TGI,UO-31 renal,26.9 µM
same,TGI,HOP-18 NSCLC,26.6 µM
same,TGI,DMS 114 small cell lung,18.1 µM
same,TGI,SF-268 CNS,15.3 µM
same,TGI,IGROV1 ovarian,41.9 µM
same,TGI,M14 melanoma,27.8 µM
same,TGI,OVCAR-5 ovarian,39 µM
same,TGI,SN12C renal,25.3 µM
same,TGI,SK-MEL-28 melanoma,30.2 µM
same,TGI,EKVX NSCLC,41.3 µM
same,TGI,HCT-116 colon,21.6 µM
same,TGI,786-0 renal,22.9 µM
same,TGI,HOP-62 NSCLC,31.1 µM
same,TGI,NCI-H226 lung,31.6 µM
same,TGI,SW-620 colon,25.9 µM
same,TGI,KM12 colon,16.8 µM
same,TGI,RXF-631 renal,63.5 µM
same,TGI,NCI-H522 lung,13.3 µM
same,TGI,KM20L2 colon,35.6 µM
same,TGI,RPMI-8226 leukemia,25.2 µM
same,TGI,UACC-257 melanoma,27.2 µM
c1ccc(C2CC(c3ccc4ccccc4c3)=Nc3ccccc3S2)cc1 (stereo unspecified),TGI,HCC-2998 colon,24.8 µM
same,TGI,SF-539 CNS,31.5 µM
same,TGI,U251 CNS,31 µM
same,TGI,HT29 colon,30.8 µM
same,TGI,NCI-H460 lung,29.1 µM
same,TGI,OVCAR-4 ovarian,37.5 µM
same,TGI,MALME-3M melanoma,35.8 µM
same,TGI,RXF 393 renal,33.4 µM
same,TGI,NCI-H23 lung,28.9 µM
same,TGI,SNB-19 CNS,36.7 µM
same,TGI,SNB-75 CNS,40.4 µM
same,TGI,CCRF-CEM leukemia,99.7 µM
same,TGI,SR leukemia,> 100 µM
same,TGI,XF 498 CNS,31.2 µM
same,TGI,DMS 273 small cell lung,48.6 µM
same,TGI,M19-MEL melanoma,40.5 µM
same,TGI,LXFL 529 NSCLC,27.6 µM
same,TGI,ACHN renal,31.2 µM
same,TGI,SK-MEL-5 melanoma,35.3 µM
same,TGI,SK-OV-3 ovarian,80.9 µM
same,TGI,TK-10 renal,37.8 µM
same,TGI,K-562 leukemia,59.3 µM
same,TGI,LOX IMVI melanoma,29.5 µM
same,TGI,OVCAR-8 ovarian,29.9 µM
same,TGI,UACC-62 melanoma,35.2 µM
same,TGI,A549 NSCLC,38.8 µM
same,TGI,SF-295 CNS,31.7 µM
same,TGI,OVCAR-3 ovarian,38.7 µM
same,TGI,A498 renal,31.1 µM
same,TGI,SNB-78 CNS,37.3 µM
same,TGI,SK-MEL-2 melanoma,34.6 µM
same,TGI,MOLT-4 leukemia,> 100 µM
same,TGI,HL-60(TB) leukemia,55.9 µM
same,TGI,UO-31 renal,25.1 µM
same,TGI,HOP-18 NSCLC,58.5 µM
same,TGI,SF-268 CNS,31.1 µM
same,TGI,IGROV1 ovarian,49 µM
same,TGI,M14 melanoma,31.2 µM
same,TGI,OVCAR-5 ovarian,37.6 µM
same,TGI,SN12C renal,30.4 µM
same,TGI,SK-MEL-28 melanoma,33.1 µM
same,TGI,EKVX NSCLC,50.7 µM
same,TGI,HCT-116 colon,30 µM
same,TGI,786-0 renal,30.2 µM
same,TGI,HOP-62 NSCLC,38.2 µM
same,TGI,NCI-H226 lung,42.7 µM
same,TGI,SW-620 colon,33.8 µM
same,TGI,KM12 colon,38.8 µM
same,TGI,RXF-631 renal,91.1 µM
same,TGI,NCI-H522 lung,33.2 µM
same,TGI,KM20L2 colon,33.1 µM
same,TGI,RPMI-8226 leukemia,> 100 µM
same,TGI,UACC-257 melanoma,34.9 µM
CC(C)C(=S)N(C)O,TGI,HCT-15 colon,> 100 µM
same,TGI,HCC-2998 colon,> 100 µM
same,TGI,SF-539 CNS,89.7 µM
same,TGI,COLO 205 colon,> 100 µM
same,TGI,U251 CNS,> 100 µM
same,TGI,HT29 colon,13.2 µM
same,TGI,NCI-H460 lung,> 75.5 µM
same,TGI,OVCAR-4 ovarian,> 100 µM
same,TGI,MALME-3M melanoma,> 100 µM
same,TGI,RXF 393 renal,> 100 µM
same,TGI,NCI-H23 lung,> 100 µM
same,TGI,SNB-19 CNS,> 100 µM
same,TGI,SNB-75 CNS,> 100 µM
same,TGI,SR leukemia,> 100 µM
same,TGI,M19-MEL melanoma,> 57.4 µM
same,TGI,LXFL 529 NSCLC,> 100 µM
same,TGI,ACHN renal,> 100 µM
same,TGI,SK-MEL-5 melanoma,> 77.7 µM
same,TGI,SK-OV-3 ovarian,> 100 µM
same,TGI,TK-10 renal,> 91.4 µM
same,TGI,K-562 leukemia,> 100 µM
same,TGI,LOX IMVI melanoma,62.5 µM
same,TGI,OVCAR-8 ovarian,> 100 µM
same,TGI,DLD-1 colon,> 100 µM
same,TGI,CAKI-1 renal,> 100 µM
same,TGI,UACC-62 melanoma,> 61.9 µM
same,TGI,A549 NSCLC,> 100 µM
same,TGI,SF-295 CNS,> 100 µM
same,TGI,OVCAR-3 ovarian,> 100 µM
same,TGI,A498 renal,63.1 µM
same,TGI,SNB-78 CNS,> 100 µM
same,TGI,SK-MEL-2 melanoma,72.3 µM
same,TGI,MOLT-4 leukemia,> 24.7 µM
same,TGI,HL-60(TB) leukemia,> 24.2 µM
same,TGI,UO-31 renal,50.2 µM
same,TGI,DMS 114 small cell lung,19.3 µM
same,TGI,SF-268 CNS,> 100 µM
same,TGI,IGROV1 ovarian,> 100 µM
same,TGI,M14 melanoma,> 100 µM
same,TGI,OVCAR-5 ovarian,> 100 µM
same,TGI,HOP-92 NSCLC,> 100 µM
same,TGI,SN12C renal,> 100 µM
same,TGI,SK-MEL-28 melanoma,> 100 µM
same,TGI,EKVX NSCLC,> 100 µM
same,TGI,HCT-116 colon,19.9 µM
same,TGI,786-0 renal,> 100 µM
same,TGI,HOP-62 NSCLC,> 93.3 µM
same,TGI,NCI-H226 lung,> 100 µM
same,TGI,SW-620 colon,> 61.5 µM
same,TGI,KM12 colon,> 72.9 µM
same,TGI,RXF-631 renal,> 100 µM
same,TGI,NCI-H522 lung,> 27.2 µM
same,TGI,KM20L2 colon,> 100 µM
same,TGI,RPMI-8226 leukemia,> 52.6 µM
same,TGI,UACC-257 melanoma,> 100 µM

# — PubChem BioAssay (NCI)
